Data taken from patent US7101878B1 (Agouron Pharmaceuticals, Inc., priority 1998, dated 2006).
Read-outs that look alike come from different tables or passages of the source.

Tests used:
[1] = biological target: T1, mouse GnRH receptor (Mus musculus, UniProt Q01776); experiment: Radioligand binding, 125I-GnRH-A, 293 cells expressing mouse GnRH receptors; conditions: 10 uM; read-out: % Inhib. @ 10 uM mGnRH
T1 construct: expressed in transfected cells; host or cells: 293 cells
T1 sequence (Q01776 1-327): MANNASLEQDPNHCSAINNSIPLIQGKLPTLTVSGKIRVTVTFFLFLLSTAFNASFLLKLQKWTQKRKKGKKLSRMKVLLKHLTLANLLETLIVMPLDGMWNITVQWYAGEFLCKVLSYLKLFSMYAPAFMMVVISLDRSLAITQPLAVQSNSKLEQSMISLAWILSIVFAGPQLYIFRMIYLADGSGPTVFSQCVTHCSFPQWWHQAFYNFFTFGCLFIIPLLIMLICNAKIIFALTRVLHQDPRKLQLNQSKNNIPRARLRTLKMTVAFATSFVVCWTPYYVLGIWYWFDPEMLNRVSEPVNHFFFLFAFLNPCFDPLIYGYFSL
Procedure: All compounds were diluted in 1% DMSO (final assay concentration) in binding assay buffer. […] Reactions were terminated by rapid filtration onto 96-well Packard GF/C filters soaked in 0.1% polyethyleneimine. Filters were washed three times with PBS buffer, dried and counted on a Packard Topcount by liquid scintillation counting.
Assay conditions were identical for assessing compound activities at other species. […] IC50 values for control peptides and test compounds were calculated utilizing GraphPad Prism™ software.
The reaction mixture was vortexed and incubated for 1 min at room temperature. After one min, the mixture was vortexed and allowed to incubate for an additional minute. 2 ml of 0.5 M acetic acid/1% BSA was added to the reaction tube and the mixture was added to a C18 Sep-Pak cartridge. The cartridge was washed with subsequent washes of 5 ml H2O and 5 ml 0.5M acetic acid and then eluted with 5×1 ml of 60% CH3CN/40% 0.5M acetic acid. The eluate was diluted with 3× volume of HPLC buffer A (0.1% TFA in H2O) and loaded onto a C18 column. […] The radioactive fractions (750 ed/fraction) are collected into clean polypropylene tubes containing 100 μl of 10% BSA. Fractions were assessed for biological activity by radioligand binding.

[2] = biological target: T2, human GnRH receptor (Homo sapiens, UniProt P30968); experiment: Radioligand binding, 125I-GnRH-A displacement, membranes of HEK 293 cells with human GnRH receptor
T2 construct: expressed in transfected cells; host or cells: HEK 293 (hGnRH-R/293, from Dr. Stuart Sealfon)
T2 sequence (P30968 1-328): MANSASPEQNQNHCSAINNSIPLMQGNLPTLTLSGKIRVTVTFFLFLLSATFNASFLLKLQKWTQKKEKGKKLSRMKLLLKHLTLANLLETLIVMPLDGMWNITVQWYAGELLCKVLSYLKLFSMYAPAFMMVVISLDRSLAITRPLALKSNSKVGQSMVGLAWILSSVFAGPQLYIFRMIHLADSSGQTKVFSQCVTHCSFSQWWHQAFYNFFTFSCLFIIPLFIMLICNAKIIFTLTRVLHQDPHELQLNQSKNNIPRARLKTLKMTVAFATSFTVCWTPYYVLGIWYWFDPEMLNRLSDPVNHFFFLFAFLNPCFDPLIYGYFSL
Summary of the method: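 Bound tracer was separated by filtration through polyethyleneimine-soaked GF/C filters and counted by liquid scintillation. IC50 from curve fitting; other species were tested under the same conditions.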

[3] = 1 uM, read-out: % Inhib. @ 1 uM hGnRH
[4] = 1 h, repeat of % Inhib. at 1 uM, read-out: Repeats @ 1 uM hGnRH

Row | inhibition at 10 µM [1] [%] | inhibition at 1 µM [2, 3] [%] | inhibition at 1 µM [2, 4] [%] | Structure (SMILES)
1 | 99 |  |  | Cc1cc2c(cc1Cc1ccc(C(=O)NCCCN(C)C)o1)C(C)(C)CCC2(C)C
2 | 93 |  |  | Cc1cc2c(cc1Cc1ccc(C(=O)N3CCC[C@H]3CO)o1)C(C)(C)CCC2(C)C
3 | 66 |  |  | Cc1cc2c(cc1Cc1ccc(C(=O)N3CCN(Cc4ccc5c(c4)OCO5)CC3)o1)C(C)(C)CCC2(C)C
4 | 96 |  |  | CCN1CCCC1CNC(=O)c1ccc(Cc2cc3c(cc2C)C(C)(C)CCC3(C)C)o1 (stereo not shown)
5 | 83 |  |  | Cc1cc2c(cc1Cc1ccc(C(=O)N3CCN(Cc4ccccc4)CC3)o1)C(C)(C)CCC2(C)C
6 | 63 |  |  | Cc1cc2c(cc1Cc1ccc(C(=O)N3CCN(CC(=O)NC(C)C)CC3)o1)C(C)(C)CCC2(C)C
7 | 65 |  |  | C=CCN(C(=O)c1ccc(Cc2cc3c(cc2C)C(C)(C)CCC3(C)C)o1)C1CCCCC1
8 | 94 |  |  | Cc1cc2c(cc1Cc1ccc(C(=O)N3CCCC4CCCCC43)o1)C(C)(C)CCC2(C)C (stereo not shown)
9 | 53 |  |  | Cc1cc2c(cc1Cc1ccc(C(=O)N3CCCC3CNc3ccccc3)o1)C(C)(C)CCC2(C)C (stereo not shown)
10 | 28 |  |  | Cc1cc2c(cc1Cc1ccc(C(=O)NC(C)c3cccc4ccccc34)o1)C(C)(C)CCC2(C)C (stereo not shown)
11 | 83 |  |  | C#CCN(C)C(=O)c1ccc(Cc2cc3c(cc2C)C(C)(C)CCC3(C)C)o1
12 | 35 |  |  | Cc1cc2c(cc1Cc1ccc(C(=O)N3CCC(c4cccc(C(F)(F)F)c4)C(O)C3)o1)C(C)(C)CCC2(C)C (stereo not shown)
13 | 36 |  |  | Cc1cc2c(cc1Cc1ccc(C(=O)N3CCN(c4ccccc4O)CC3)o1)C(C)(C)CCC2(C)C
14 | 74 |  |  | Cc1cc2c(cc1Cc1ccc(C(=O)N(CCC#N)Cc3ccccc3)o1)C(C)(C)CCC2(C)C
15 | 30 |  |  | Cc1cc2c(cc1Cc1ccc(C(=O)N(CCC(c3ccccc3)c3ccccc3)C(C)c3ccccc3)o1)C(C)(C)CCC2(C)C (stereo not shown)
16 | 20 |  |  | Cc1cc2c(cc1Cc1ccc(C(=O)NCCc3ccc(OCc4ccccc4)c(OCc4ccccc4)c3)o1)C(C)(C)CCC2(C)C
17 | 14 |  |  | Cc1cc2c(cc1Cc1ccc(C(=O)N(C)CCCC34c5ccccc5[C@@H]5CCC53c3ccccc34)o1)C(C)(C)CCC2(C)C (stereo partly shown)
18 | 27 |  |  | Cc1cc2c(cc1Cc1ccc(C(=O)N(Cc3c[nH]c4ccccc34)C3CCCCC3)o1)C(C)(C)CCC2(C)C
19 | 29 |  |  | COc1cc2c(cc1OC)C(c1ccccc1)N(C(=O)c1ccc(Cc3cc4c(cc3C)C(C)(C)CCC4(C)C)o1)CC2 (stereo not shown)
20 | 100 |  |  | Cc1cc2c(cc1Cc1ccc(C(=O)N3CC4(C)CC3CC(C)(C)C4)o1)C(C)(C)CCC2(C)C (stereo not shown)
21 | 85 |  |  | Cc1cc2c(cc1Cc1ccc(C(=O)N3CC=C(n4c(=O)[nH]c5ccccc54)CC3)o1)C(C)(C)CCC2(C)C
22 | 37 |  |  | Cc1cc2c(cc1Cc1ccc(C(=O)NC3C4CC5CC6CC(C5)C643)o1)C(C)(C)CCC2(C)C (stereo not shown)
23 | 58 |  |  | Cc1cc2c(cc1Cc1ccc(C(=O)N3CCC[C@@H]3C(=O)NC(c3ccccc3)c3ccccc3)o1)C(C)(C)CCC2(C)C
24 | 88 |  |  | Cc1cc2c(cc1Cc1ccc(C(=O)NCCC(C)C)o1)C(C)(C)CCC2(C)C
25 | 72 |  |  | Cc1cc2c(cc1Cc1ccc(C(=O)N[C@H](C)c3ccccc3)o1)C(C)(C)CCC2(C)C
26 | 86 |  |  | Cc1cc2c(cc1Cc1ccc(C(=O)N3CCC[C@@H]3C(=O)OCc3ccccc3)o1)C(C)(C)CCC2(C)C
27 | 34 |  |  | Cc1cc2c(cc1Cc1ccc(C(=O)N(C)CC(O)c3ccc(O)cc3)o1)C(C)(C)CCC2(C)C (stereo not shown)
28 | 21 |  |  | COc1ccccc1CN(CCC(c1ccccc1)c1ccccc1)C(=O)c1ccc(Cc2cc3c(cc2C)C(C)(C)CCC3(C)C)o1

Row | inhibition at 10 µM [1] [%] | inhibition at 1 µM [2, 3] [%] | inhibition at 1 µM [2, 4] [%] | Structure (SMILES)
29 | 25 |  |  | Cc1cc2c(cc1Cc1ccc(C(=O)N(CCC(c3ccccc3)c3ccccc3)Cc3ccc4c(c3)OCO4)o1)C(C)(C)CCC2(C)C
30 | 31 |  |  | Cc1cc2c(cc1Cc1ccc(C(=O)N(CCC(c3ccccc3)c3ccccc3)CC3CCCCC3)o1)C(C)(C)CCC2(C)C
31 | 28 |  |  | Cc1cc2c(cc1Cc1ccc(C(=O)N(Cc3ccc(O)cc3)C3CCN(Cc4ccccc4)CC3)o1)C(C)(C)CCC2(C)C
32 | 39 |  |  | COC(=O)C1SCCN1C(=O)c1ccc(Cc2cc3c(cc2C)C(C)(C)CCC3(C)C)o1 (stereo not shown)
33 | 44 |  |  | Cc1cc2c(cc1Cc1ccc(C(=O)N[C@H](C)c3ccc([N+](=O)[O-])cc3)o1)C(C)(C)CCC2(C)C
34 | 37 |  |  | Cc1cc2c(cc1Cc1ccc(C(=O)NC(C)(C)CNC(=O)C(F)(F)F)o1)C(C)(C)CCC2(C)C
35 |  | 59 | 62 | Cc1cc2c(cc1Cc1ccc(C(=O)NCCc3cccc(F)c3)o1)C(C)(C)CCC2(C)C [drawing 1181]
36 |  | 93 | 95 | Cc1cc2c(cc1Cc1ccc(C(=O)NCCOc3ccccc3)o1)C(C)(C)CCC2(C)C [drawing 1182]
37 |  | 76 | 79 | COc1cccc(CNC(=O)c2ccc(Cc3cc4c(cc3C)C(C)(C)CCC4(C)C)o2)c1 [drawing 1188]
38 |  | -10 | -6 | Cc1cc2c(cc1Cc1ccc(C(=O)NCc3cccc(-c4ccccc4)c3)o1)C(C)(C)CCC2(C)C [drawing 1190]
39 |  | 77 | 79 | Cc1ccc(CNC(=O)c2ccc(Cc3cc4c(cc3C)C(C)(C)CCC4(C)C)o2)cc1C [drawing 1191]
40 |  | 81 | 85 | Cc1cc2c(cc1Cc1ccc(C(=O)NCc3cccc(C)c3C)o1)C(C)(C)CCC2(C)C [drawing 1192]
41 |  | 48 | 52 | Cc1ccc(CCNC(=O)c2ccc(Cc3cc4c(cc3C)C(C)(C)CCC4(C)C)o2)cc1 [drawing 1193]
42 |  | 81 | 82 | Cc1cc2c(cc1Cc1ccc(C(=O)NCc3cccc(F)c3)o1)C(C)(C)CCC2(C)C [drawing 1195]
43 |  | 68 | 69 | Cc1cc2c(cc1Cc1ccc(C(=O)NCC(O)c3ccccc3)o1)C(C)(C)CCC2(C)C (stereo not shown) [drawing 1196]
44 |  | 74 | 81 | Cc1cc2c(cc1Cc1ccc(C(=O)NCc3ccc(F)cc3F)o1)C(C)(C)CCC2(C)C [drawing 1197]
45 |  | 45 | 45 | Cc1cc2c(cc1Cc1ccc(C(=O)NCCc3ccc(F)cc3)o1)C(C)(C)CCC2(C)C [drawing 1198]
46 |  | 10 | 2 | Cc1cc2c(cc1Cc1ccc(C(=O)NC(CO)CC3CCCCC3)o1)C(C)(C)CCC2(C)C (stereo not shown) [drawing 1215]
47 |  | 78 | 85 | Cc1cc2c(cc1Cc1ccc(C(=O)NCc3ccc(N(C)C)cc3)o1)C(C)(C)CCC2(C)C [drawing 1220]
48 |  | 54 | 54 | COc1cc(CNC(=O)c2ccc(Cc3cc4c(cc3C)C(C)(C)CCC4(C)C)o2)ccc1O [drawing 1222]
49 |  | 57 | 60 | Cc1cc2c(cc1Cc1ccc(C(=O)NCc3ccccc3Br)o1)C(C)(C)CCC2(C)C [drawing 1223]
50 |  | 94 | 96 | COc1ccc(CNC(=O)c2ccc(Cc3cc4c(cc3C)C(C)(C)CCC4(C)C)o2)c(OC)c1 [drawing 1224]
51 |  | 75 | 77 | Cc1cc2c(cc1Cc1ccc(C(=O)NCc3cccc([N+](=O)[O-])c3)o1)C(C)(C)CCC2(C)C [drawing 1231]
52 |  | 43 | 48 | Cc1cc2c(cc1Cc1ccc(C(=O)NC(C#N)c3ccccc3)o1)C(C)(C)CCC2(C)C (stereo not shown) [drawing 1233]
53 |  | 49 | 52 | Cc1cc2c(cc1Cc1ccc(C(=O)NCc3ccc(Br)cc3)o1)C(C)(C)CCC2(C)C [drawing 1234]
54 |  | 62 | 68 | Cc1cc2c(cc1Cc1ccc(C(=O)NCc3cccc(Br)c3)o1)C(C)(C)CCC2(C)C [drawing 1235]
55 |  | 41 | 44 | Cc1cc2c(cc1Cc1ccc(C(=O)NC(C)c3ccc([N+](=O)[O-])cc3)o1)C(C)(C)CCC2(C)C (stereo not shown) [drawing 1238]
